# Data: patent US10874669B2 (WAYNE STATE UNIVERSITY, priority 2018, dated 2020)
# Experiments:
# cloned D3 receptors = cloned D3 receptors (Rattus norvegicus (Rat), UniProt P19020); experiment: [3H]spiperone displacement, cloned D3 receptors in HEK cells; assay type: binding; settings: means±SEM for 3 experiments
# Source text: The following table provides inhibition constants for displacing [3H]spiperone binding to the cloned D2L and D3 receptors expressed in HEK cells. Results are means±SEM for 3 experiments each performed in triplicate. NR=Not repeated.
# cloned D2L receptors = cloned D2L receptors (Rattus norvegicus (Rat), UniProt P61169); experiment: [3H]spiperone displacement, cloned D2L receptors in HEK cells; assay type: binding; settings: means±SEM for 3 experiments
# Chain of cloned D2L receptors (P61169 whole entry): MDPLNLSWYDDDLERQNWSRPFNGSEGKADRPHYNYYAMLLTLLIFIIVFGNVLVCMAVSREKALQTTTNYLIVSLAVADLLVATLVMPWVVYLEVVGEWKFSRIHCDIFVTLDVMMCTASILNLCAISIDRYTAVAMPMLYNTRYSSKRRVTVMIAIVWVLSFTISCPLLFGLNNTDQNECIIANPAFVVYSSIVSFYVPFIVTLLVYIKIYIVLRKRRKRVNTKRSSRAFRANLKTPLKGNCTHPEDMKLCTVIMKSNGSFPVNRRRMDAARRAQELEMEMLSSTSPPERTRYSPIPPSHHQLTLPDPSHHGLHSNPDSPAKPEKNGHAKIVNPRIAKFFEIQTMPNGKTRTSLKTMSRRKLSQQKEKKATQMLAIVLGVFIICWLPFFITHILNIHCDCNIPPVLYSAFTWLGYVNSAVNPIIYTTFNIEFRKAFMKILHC
# Source text: The following table provides inhibition constants for displacing [3H]spiperone binding to the cloned D2L and D3 receptors expressed in HEK cells. […] NR=Not repeated.
# cloned rat D2L receptors = cloned rat D2L receptors (Rattus norvegicus (Rat), UniProt P61169); experiment: [3H]spiroperidol competition binding, rat D2L receptors in HEK-293 cells; settings: values of Table 3; for Ki: rat D2 in HEK-293 cells; for D2/D3: ratio of Ki values
# Chain of cloned rat D2L receptors (P61169 whole entry): as above
# Source text: (§1) All these procedures were described by us previously.
# cloned rat D3 receptors = cloned rat D3 receptors (Rattus norvegicus (Rat), UniProt P19020); experiment: [3H]spiroperidol competition binding, rat D3 receptors in HEK-293 cells; settings: rat D3 in HEK-293 cells; values of Table 3
# Chain of cloned rat D3 receptors (P19020 whole entry): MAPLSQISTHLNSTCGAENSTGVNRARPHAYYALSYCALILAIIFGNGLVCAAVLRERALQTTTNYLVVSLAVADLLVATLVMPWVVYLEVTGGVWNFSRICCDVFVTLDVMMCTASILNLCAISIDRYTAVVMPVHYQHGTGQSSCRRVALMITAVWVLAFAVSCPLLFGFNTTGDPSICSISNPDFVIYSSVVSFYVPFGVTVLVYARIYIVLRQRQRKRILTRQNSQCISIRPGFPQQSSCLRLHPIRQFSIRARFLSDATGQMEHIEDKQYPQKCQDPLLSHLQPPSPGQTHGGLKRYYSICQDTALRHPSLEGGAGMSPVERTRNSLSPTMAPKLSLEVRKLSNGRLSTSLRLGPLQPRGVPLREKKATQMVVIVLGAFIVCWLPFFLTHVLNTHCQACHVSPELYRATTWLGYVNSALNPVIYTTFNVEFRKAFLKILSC
# Method: A well established radioligand competition assay was carried out to evaluate binding affinity of the test compounds and were compared with that of the reference agent (S)-5-OH-DPAT (Table 3). Binding affinity to rat DA D2 and D3 receptors expressed in HEK-293 cells was determined as described by us previously. […] This indicated highest tolerance of the 4-substituted carbazole derivative for interaction with the D2 and D3 receptors.
# as §1
# human DA D3 receptors = human DA D3 receptors (Homo sapiens (Human), UniProt P35462); experiment: [35S]GTPγS binding stimulation, human D3 receptors in CHO cells; assay type: biochemical
# Chain of human DA D3 receptors (P35462 whole entry): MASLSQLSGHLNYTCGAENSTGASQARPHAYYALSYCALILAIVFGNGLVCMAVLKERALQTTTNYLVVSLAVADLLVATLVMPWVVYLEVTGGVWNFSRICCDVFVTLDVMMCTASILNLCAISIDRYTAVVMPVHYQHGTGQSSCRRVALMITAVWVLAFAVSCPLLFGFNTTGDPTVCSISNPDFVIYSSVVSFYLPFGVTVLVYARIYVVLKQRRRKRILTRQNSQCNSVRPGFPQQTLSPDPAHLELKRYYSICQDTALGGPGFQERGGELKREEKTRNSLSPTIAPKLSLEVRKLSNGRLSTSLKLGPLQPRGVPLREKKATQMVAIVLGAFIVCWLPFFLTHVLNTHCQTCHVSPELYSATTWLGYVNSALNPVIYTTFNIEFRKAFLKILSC
# human DA D2 receptors = human DA D2 receptors (Homo sapiens (Human), UniProt P14416); experiment: [35S]GTPγS binding stimulation, human D2 receptors in CHO cells; assay type: biochemical
# Chain of human DA D2 receptors (P14416 whole entry): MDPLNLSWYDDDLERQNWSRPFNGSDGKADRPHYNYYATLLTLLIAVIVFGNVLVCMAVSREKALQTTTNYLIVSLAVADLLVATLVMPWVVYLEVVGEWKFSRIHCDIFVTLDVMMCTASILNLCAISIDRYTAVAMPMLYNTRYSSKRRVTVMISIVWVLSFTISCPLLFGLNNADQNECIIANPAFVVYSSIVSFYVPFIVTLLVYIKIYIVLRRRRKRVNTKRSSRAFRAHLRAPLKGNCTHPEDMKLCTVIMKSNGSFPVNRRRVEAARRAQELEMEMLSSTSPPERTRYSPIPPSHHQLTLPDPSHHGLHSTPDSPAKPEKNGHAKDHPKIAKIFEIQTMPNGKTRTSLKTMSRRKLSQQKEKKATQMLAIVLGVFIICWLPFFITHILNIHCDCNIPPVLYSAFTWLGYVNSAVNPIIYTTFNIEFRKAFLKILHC
# [1] = tested on: reserpine-induced hypolocomotion in rats; experiment: Reversal of reserpine-induced hypolocomotion in rats; settings: 10 μMol/kg, ip
# Method: In this model depletion of catecholamines by reserpine results in catalepsy in rats.
# The following commercially available drug was used in the experiment: reserpine hydrochloride (Alfa Aesar). […] The compounds for this study were administered in a volume of 0.1-0.2 mL for subcutaneous administration and 0.5-0.7 ml for interaperitoneal administration into each rat.
# In rodent studies, animals were male and female Sprague-Dawley rats from Harlan (Indianapolis, Ind.) weighing 220-225 g unless otherwise specified. Animals were maintained in sawdust-lined cages in a temperature and humidity controlled environment at 22±1° C. and 60±5% humidity, respectively. A 12 h light/dark cycle was maintained, with lights on from 6:00 a.m. to 6:00 p.m. They were group-housed with unrestricted access to food and water. All experiments were performed during the light component.
# Reserpine (5.0 mg/kg, sc) was administered 18 h before the injection of drug or vehicle. The rats were placed individually in the chambers for 1 h for acclimatization before administration of the test drugs or vehicle. Immediately after administration of drug or vehicle, animals were individually placed in Opto-Varimex 4 animal activity monitor chamber (Columbus Instruments, Ohio, USA) to start measuring locomotor activity. Locomotion was monitored for 6 h. […] The data were presented as horizontal activity (HACTV). […] The data were analyzed by one-way analysis of variance (ANOVA) followed by Dunnett's post hoc test.
# [2] = compared with maximum stimulation by full agonist DA
# Chain of cloned D3 receptors (P19020 whole entry): as the sequence (P19020 whole entry) above
smiles,measurement,setting,value
"CCCN(CCCCCc1ccc(O)c(OC)c1)[C@@H]1CCc2nc(N)sc2C1 [(−)-23, (R)-4-(5-((2-Amino-4,5,6,7-tetrahydrobenzo[d]thiazol-6-yl)(propyl)amino)pentyl)-2-methoxyphenol]",Ki,cloned D3 receptors,1.57 ± 0.41 nM
same,Ki,cloned D2L receptors,68.3 ± 12 nM
"CCCN(CCCCCc1ccc(O)c(O)c1)[C@@H]1CCc2nc(N)sc2C1 [(−)-34, (R)-4-(5-((2-Amino-4,5,6,7-tetrahydrobenzo[d]thiazol-6-yl)(propyl)amino)pentyl)benzene-1,2-diol]",Ki,cloned D3 receptors,1.42 ± 0.14 nM
same,Ki,cloned D2L receptors,65.7 ± 11.7 nM
"CCCN(CCCCCc1cc(O)ccc1O)[C@@H]1CCc2nc(N)sc2C1 [(−)-36, (R)-2-(5-((2-Amino-4,5,6,7-tetrahydrobenzo[d]thiazol-6-yl)(propyl)amino)pentyl)benzene-1,4-diol]",Ki,cloned D3 receptors,0.78 ± 0.2 nM
"CCCN(CCN1CCN(c2ccc3c(c2)[nH]c2ccccc23)CC1)[C@H]1CCc2nc(N)sc2C1 [(−)-91a, (S)—N^6-(2-(4-(9H-carbazol-2-yl)piperazin-1-yl)ethyl)-N^6-propyl-4,5,6,7-tetrahydrobenzo[d]thiazole-2,6-diamine]",Ki,cloned rat D2L receptors,504 nM
same,D2/D3,cloned rat D2L receptors,128
same,Ki,cloned rat D3 receptors,3.94 nM
"CCCN(CCN1CCN(c2cccc3[nH]c4ccccc4c23)CC1)[C@H]1CCc2nc(N)sc2C1 [(−)-91c, (S)—N^6-(2-(4-(9H-carbazol-4-yl)piperazin-1-yl)ethyl)-N^6-propyl-4,5,6,7-tetrahydrobenzo[d]thiazole-2,6-diamine]",EC50,"human DA D3 receptors; CHO cells, read-out: EC50 (GTPγS), D3",1.67 nM
same,Emax,human DA D3 receptors; [2],82%
same,EC50,"human DA D2 receptors; CHO cells, read-out: EC50 (GTPγS), D2",22.2 nM
same,Emax,human DA D2 receptors; [2],57%
"CCCN(CCN1CCN(c2ccc3[nH]c4ccccc4c3c2)CC1)[C@H]1CCc2c(O)cccc2C1 [(−)-95b, (S)-6-((2-(4-(9H-carbazol-3-yl)piperazin-1-yl)ethyl)(propyl)amino)-5,6,7,8-tetra-hydronaphthalen-1-ol]",Ki,cloned rat D2L receptors,61.6 nM
same,Ki,cloned rat D3 receptors,1.94 nM
"CCCN(CCN1CCN(CCn2c3ccccc3c3ccccc32)CC1)[C@H]1CCc2nc(N)sc2C1 [(−)-101, (S)—N^6-(2-(4-(2-(9H-carbazol-9-yl)ethyl)piperazin-1-yl)ethyl)-N^6-propyl-4,5,6,7-tetrahydrobenzo[d]thiazole-2,6-diamine]",Ki,cloned rat D2L receptors,82.6 nM
same,D2/D3,cloned rat D2L receptors,12
same,Ki,cloned rat D3 receptors,7.18 nM
"CCCN(CCCc1ccc(O)c(OC)c1)C1CCc2nc(N)sc2C1 (centres unmarked) [Compound 22, 4-(3-((2-Amino-4,5,6,7-tetrahydrobenzo[d]thiazol-6-yl)(propyl)amino)propyl)-2-methoxyphenol]",Ki,cloned D3 receptors,15.8 ± 2 nM
same,Ki,cloned D2L receptors,2400 nM
"CCCN(CCCCCc1ccc(O)c(OC)c1)C1CCc2nc(N)sc2C1 (centres unmarked) [Compound 23, 4-(5-((2-Amino-4,5,6,7-tetrahydrobenzo[d]thiazol-6-yl)(propyl)amino)pentyl)-2-methoxyphenol]",Ki,cloned D2L receptors,175 ± 8 nM
"CCCN(CCCCCc1ccc(O)c(O)c1)C1CCc2nc(N)sc2C1 (centres unmarked) [Compound 34, 4-(5-((2-Amino-4,5,6,7-tetrahydrobenzo[d]thiazol-6-yl)(propyl)amino)pentyl)benzene-1,2-diol]",Ki,cloned D3 receptors,2.59 ± 0.31 nM
same,Ki,cloned D2L receptors,116 ± 8 nM
"CCCN(CCCCCc1cc(O)ccc1O)C1CCc2nc(N)sc2C1 (centres unmarked) [Compound 35, 2-(5-((2-Amino-4,5,6,7-tetrahydrobenzo[d]thiazol-6-yl)(propyl)amino)pentyl)benzene-1,4-diol]",Ki,cloned D3 receptors,1.01 ± 0.28 nM
"CCCN(CCC/C=C\c1ccc(O)c(OC)c1)C1CCc2nc(N)sc2C1 (centres unmarked) [Compound 39, (Z)-4-(5-((2-amino-4,5,6,7-tetrahydrobenzo[d]thiazol-6-yl)(propyl)amino)pent-1-en-1-yl)-2-methoxyphenol]",Ki,cloned D3 receptors,23.3 ± 4 nM
same,Ki,cloned D2L receptors,233 ± 8 nM
"CCCN(CCCC1(O)C=CC(O)=CC1)C1CCc2nc(N)sc2C1 (centres unmarked) [Compound 54, 4-(3-((2-Amino-4,5,6,7-tetrahydrobenzo[d]thiazol-6-yl)(propyl)amino)propyl)-benzene-1,4-diol]",Ki,cloned D3 receptors,11.9 ± 1.9 nM
"CCCN(C/C=C/c1ccc(O)c(OC)c1)C1CCc2nc(N)sc2C1 (centres unmarked) [Compound 63, (E)-4-(3-((2-amino-4,5,6,7-tetrahydrobenzo[d]thiazol-6-yl)(propyl)amino)prop-1-en-1-yl)-2-methoxyphenol]",Ki,cloned D3 receptors,39.1 ± 5.4 nM
same,Ki,cloned D2L receptors,4630 nM
CCCN(CCN1CCN(c2ccc3c(c2)C(=O)C(=O)N3)CC1)[C@H]1CCc2nc(N)sc2C1 [Compound 70],Ki,cloned D3 receptors,14.2 ± 3.8 nM
same,Ki,cloned D2L receptors,162 ± 7 nM
"CCCN(CCN1CCN(c2ccc3c(c2)[nH]c2ccccc23)CC1)C1CCc2nc(N)sc2C1 (centres unmarked) [Compound 90a, N^6-(2-(4-(9H-carbazol-2-yl)piperazin-1-yl)ethyl)-N^6-propyl-4,5,6,7-tetrahydrobenzo-[d]thiazole-2,6-diamine]",Ki,cloned rat D2L receptors,902 nM
same,D2/D3,cloned rat D2L receptors,146
same,Ki,cloned rat D3 receptors,6.18 nM
"CCCN(CCN1CCN(c2ccc3[nH]c4ccccc4c3c2)CC1)C1CCc2nc(N)sc2C1 (centres unmarked) [Compound 90b, N^6-(2-(4-(9H-carbazol-3-yl)piperazin-1-yl)ethyl)-N^6-propyl-4,5,6,7-tetrahydrobenzo[d]thiazole-2,6-diamine]",Ki,cloned rat D2L receptors,612 nM
same,D2/D3,cloned rat D2L receptors,196
same,Ki,cloned rat D3 receptors,3.12 nM
"CCCN(CCN1CCN(c2cccc3[nH]c4ccccc4c23)CC1)C1CCc2nc(N)sc2C1 (centres unmarked) [Compound 90c, N^6-(2-(4-(9H-carbazol-4-yl)piperazin-1-yl)ethyl)-N^6-propyl-4,5,6,7-tetrahydrobenzo[d]thiazole-2,6-diamine]",Ki,cloned rat D2L receptors,76.9 nM
same,D2/D3,cloned rat D2L receptors,9.86
same,Ki,cloned rat D3 receptors,7.8 nM
"CCCN(CCN1CCN(CCn2c3ccccc3c3ccccc32)CC1)C1CCc2nc(N)sc2C1 (centres unmarked) [Compound 100, N^6-(2-(4-(2-(9H-carbazol-9-yl)ethyl)piperazin-1-yl)ethyl)-N^6-propyl-4,5,6,7-tetrahydrobenzo[d]thiazole-2,6-diamine]",Ki,cloned rat D2L receptors,435 nM
same,D2/D3,cloned rat D2L receptors,65.9
same,Ki,cloned rat D3 receptors,6.6 nM
"CCCN(CCC)CCc1cccc2c1CC(=O)N2 [ropinirole, reference compound]",duration of locomotor activation,[1]; locomotion monitored for 6 h,shorter duration of action
same,reversal of reserpine-induced akinesia / hypolocomotion (horizontal activity),"[1]; reserpine 5 mg/kg sc, 18 h pretreatment, rats",fast onset of activation of locomotion
